Data taken from patent US20260216133A1, “AEROSOL COMPRISING 5-METHOXY-N,N-DIMETHYLTRYPTAMINE” (GH Research Ireland Limited, priority 2020, published 2026).
Several values for one entry are separate records, joined by “and”; a condition that tells them apart may be missing. Identical values can stand only once.

Tests used:
[1] = Aerosol particle formation rate (aerosolized dose/aerosolization time); type: physicochemical; conditions: aerosolization time 15 seconds
Procedure: The aerosol particle formation rate can be calculated as follows: Aerosol particle formation rate=Aerosolized dose/Aerosolization time. For the aerosolized dose data and the aerosolization time of 15 seconds from Example 2, the following aerosol particle formation rate was determined: […]

[2] = Aerosol 5-MeO-DMT mass density (aerosolized dose/aerosol volume); type: physicochemical; conditions: aerosol volume about 3 liters
Procedure: The aerosol 5-MeO-DMT mass density can be calculated as follows: Aerosol 5-MeO-DMT mass density =Aerosolized dose/Aerosol volume. For the aerosolized dose data and the aerosol volume of about 3 liters from Example 2, the following aerosol 5-MeO-DMT mass density was determined: […]

[3] = Particle size distribution of 5-MeO-DMT aerosol, Next Generation Impactor (NGI); type: physicochemical
Procedure: The particle size distribution of 5-MeO-DMT aerosol particles as generated according to the compositions and methods of the present invention are determined according to United States Pharmacopeia (USP) methods using the Next Generation Impactor (NGI) (United States Pharmacopeia (USP)<601> Apparatus 6) as shown in FIG. 2.
This device fractionates the bolus aerosol delivered into a discrete series of size ranges on the basis of particle or droplet inertia and provides a measure of the aerodynamic diameter of the aerosol droplets produced. The droplet size range captured by each stage in the NGI can be dependent on the measured airflow used. For the present analysis, experiments are carried out using an airflow of 30 liters/minute (Experiments 1 and 3) and of 15 liters/minute (Experiments 2 and 4).
Based on a log-normal distribution of particle sizes, the aerodynamic size distribution is characterized by the mass median aerodynamic diameter (MMAD) and geometric standard deviation (GSD). Moreover, the fine particle fraction (FPF) is determined as the weight percentage of droplets having an aerodynamic diameter of less than or equal to 5 μm, relative to the total of droplets on the impactor.
A first experiment is carried out using a Volcano Medic Vaporization System as described in Example 1 with dosing capsules having a nominal drug load of 6 mg 5-MeO-DMT free base/capsule. The aerosol recovered in the balloon is measured using the NGI operated using a flow rate of 30 liters/min.
A second experiment is carried also out using a Volcano Medic Vaporization System as described in Example 1 with dosing capsules having a nominal drug load of 6 mg 5-MeO-DMT free base/capsule. The aerosol recovered in the balloon is measured using the NGI operated using a flow rate of 15 liters/min.
In this experiment, NGI cups were coated with glycerol to prevent possible droplet re-entrainment. In addition, approximately 8 drops of 30% glycerol in water were added to each filter paper located underneath the corresponding NGI Stage Jets.

[4] = Degradation products of 5-MeO-DMT aerosol by HPLC after SPE extraction; conditions: 18 mg capsule, 210° C. aerosolization, Replicate 1, Extract 1; including the additional amount of Impurity 1
[5] = Aerosolization of 5-MeO-DMT from dosing capsules (Volcano Medic), aerosolized dose by weighing; conditions: triplicate capsules; for Aerosolized dose: 210° C., 12 l/min, 15 seconds
[6] = Experiment 1: 6 mg/capsule, NGI 30 liters/min, mean of 3 runs
[7] = Experiment 1: 6 mg/capsule, NGI 30 liters/min, single runs
[8] = Experiment 2: 6 mg/capsule, NGI 15 liters/min, Mean (Runs 1-3)
[9] = Experiment 2: 6 mg/capsule, NGI 15 liters/min, Mean (Runs 2, 3)
[10] = Experiment 3: 18 mg/capsule, NGI 30 liters/min, mean of 3 runs
[11] = Experiment 3: 18 mg/capsule, NGI 30 liters/min, single runs
[12] = Experiment 4: 18 mg/capsule, NGI 15 liters/min, glycerol-coated cups, single runs
[13] = Experiment 4: 18 mg/capsule, NGI 15 liters/min, mean of 3 runs

For COc1ccc2[nH]cc(CCN(C)C)c2c1 [5-MeO-DMT, 5-methoxy-N,N-dimethyltryptamine], the “Aerosol particle formation rate” value ([1]; target dosage 2 mg) was 0.12 mg/s, the “Aerosol particle formation rate” value ([1]; target dosage 18 mg) was 1.09 mg/s and 1.08 mg/s and the “Aerosol 5-MeO-DMT mass density” value ([2]; target dosage 2 mg) was 0.62 mg/L. For the same molecule, the “Aerosol 5-MeO-DMT mass density” value ([2]; target dosage 18 mg) was 5.45 mg/L and 5.38 mg/L and 5.43 mg/L, the FPF [3, 6] was 97.95% and the GSD [3, 6] was 3.49. The MMAD [3, 6] was 0.40 μm, the GSD [3, 7] was 4.70 and 3.05 and 2.71 and the MMAD [3, 7] was 0.33 μm and 0.46 μm and 0.42 μm. For the same molecule, the FPF ([3]; Experiment 1: 6 mg/capsule, NGI 30 liters/min, single runs, droplets <= 5 μm) was 96.19% and 98.35% and 99.31%, the FPF [3, 8] was 94.85% and the GSD [3, 8] was 4.63. The MMAD [3, 8] was 0.57 μm, the FPF [3, 9] was 94.67% and the GSD [3, 9] was 3.20. For the same molecule, the MMAD [3, 9] was 0.77 μm, the FPF ([3]; Experiment 2: 6 mg/capsule, NGI 15 liters/min, glycerol-coated cups, single runs, Run 1 may not be reliable) was 95.22% and 93.54% and 95.79% and the FPF [3, 10] was 94.64%. For the same molecule, the GSD [3, 10] was 2.65, the MMAD [3, 10] was 1.05 μm and the FPF [3, 11] was 93.13% and 94.08% and 96.72%. The GSD [3, 11] was 2.98 and 2.52 and 2.44, the MMAD [3, 11] was 0.98 μm and 1.19 μm and 0.97 μm and the FPF [3, 12] was 93.23% and 92.66% and 91.40%. For the same molecule, the GSD [3, 12] was 2.66 and 2.77 and 2.10, the MMAD [3, 12] was 1.16 μm and 1.14 μm and 1.82 μm and the FPF [3, 13] was 92.43%. For the same molecule, the GSD [3, 13] was 2.51, the MMAD [3, 13] was 1.37 μm and the “total percentage of 5-MeO-DMT degradation products in the aerosol” value [4] was 0.19%. For the same molecule, the “Aerosolized dose, % of loaded dose” value ([5]; target dosage 2 mg) was 100.5% and 99.5%, the Aerosolized dose ([5]; target dosage 2 mg) was 1.9 mg and the “Aerosolized dose, % of loaded dose” value ([5]; target dosage 18 mg) was 96.3% and 96.5% and 95.9%. The Aerosolized dose ([5]; target dosage 18 mg) was 16.3 mg and 16.2 mg.
